In publication PMC9220178, “Preclinical Characterization of Antioxidant Quinolyl Nitrone QN23 as a New Candidate for the Treatment of Ischemic Stroke” (Antioxidants, 2022):
Where two headings read alike, the source gives them in different places.

Experiments:
[1] = system: adult male Wistar rats, four-vessel occlusion (4VO) transient forebrain ischemia; experiment: Long-term neuronal viability by S6 protein immunostaining, hippocampal CA1; format: in vivo, rat; conditions: 2.0 mg/kg i.v. at reperfusion onset; 11 weeks of reperfusion
Experimental: Transient forebrain ischemia was induced in adult male Wistar rats (10–12 weeks, Charles River, L’Arbresle, France) by the standard four-vessel occlusion (4VO) model previously described. Briefly, animals were anesthetized by intraperitoneal injection of a combination of ketamine, diazepam, and atropine (62.5, 5.0, and 0.25 mg/kg, respectively); positioned in a stereotactic device; and both vertebral arteries were cauterized. The next day, anesthesia was induced with 4% isoflurane and maintained at 2–2.5% isoflurane for carotid artery dissection. After anesthesia withdrawal, the carotid arteries were occluded with an atraumatic vascular clamp to induce brain ischemia. During the entire surgical procedure, temperature was monitored at 2 min intervals and kept at 37 °C. After 15 min of ischemia, the carotid arteries were unclamped for brain reperfusion. The animals were studied after 5 days of reperfusion (R5d), or after 11 weeks of reperfusion (long-term studies), and then they were euthanized under deep anesthesia. Animals from the sham control group were handled in the same way, but without occlusion of the carotid arteries. Ischemic animals were treated with vehicle solution (ethanol/polyethylene glycol 400/saline, 1:300:200 v/v), or with nitrones QN23 or NXY-059 in vehicle solution, as a single injection through the tail vein at the onset of reperfusion. […]

[2] = Solubility studies for the injection vehicle; format: physicochemical; conditions: ethanol/saline, 1:9 v/v; highest concentrations (for doses up to 2.5 mg/kg)
Experimental: In the following section, we describe the effect of different doses of QN23 (1.0, 1.5, 2.0, and 2.5 mg/kg) administered intravenously (see Materials and Methods, Section 2.2). In order to explore this wider range of concentrations, solubility studies were carried out before the in vivo experiments in order to assess a proper pharmacological formulation. For the highest concentrations, QN23 was not soluble in our usual ethanolic vehicle (ethanol/saline, 1:9 v/v). After exploration of different formulations able to provide a safe injection method, we got the desired concentrations using a vehicle of ethanol, polyethylene glycol 400, and saline (1:300:200, v/v). Using this vehicle, animals were treated intravenously with QN23 concentrations of 1.0, 1.5, 2.0, and 2.5 mg/kg as a single injection at the onset of the reperfusion period after transient cerebral ischemia. After five days of recovery (R5d), neuronal death, apoptosis, and neurodeficit score were determined (Figure 1 and Figure 2).

[3] = Toxicokinetics study, plasma concentration by LC-MS/MS after single i.v. bolus; format: in vivo, rat; conditions: for Clast / Cmax / AUC(0-t) / C0 / clearance / Vd / k el / half-life: female Sprague Dawley rats, plasma, mean ± SE, n = 6; for Cmax / AUC(0-t) / C0 / clearance / Vd / k el / half-life: rat, iv; for AUC(0-t): read-out: AUC0–8h; for C0: read-out: C0 (initial concentration); for clearance: read-out: Cl (clearance) (converted); for Vd: read-out: Vd (volume of distribution); for k el: read-out: kel (elimination constant) (converted); for half-life: read-out: t1/2 (half-life) (converted)
Experimental: For the toxicokinetics study of QN23, female Sprague Dawley rats (9–10 weeks, Envigo, Barcelona, Spain) were divided into three groups (n = 6 per group) and treated intravenously with different concentrations of QN23 (2.0, 6.0, and 18 mg/kg), in vehicle solution (ethanol/polyethylene glycol 400/saline, 1:200:60 v/v), as a single bolus of 1 mL injection at 3 mL/min. Samples of plasma were taken at 0.25, 0.5, 1, 2, 4, and 8 h after the first administration (on day 1) and QN23 concentration was determined by liquid chromatography–mass spectrometry in tandem (LC-MS/MS) analysis for pharmacokinetic study. For the determination of the toxicokinetic parameters, a noncompartmental analysis was performed using the Phoenix 64 WinNonlin software (version 8.0, Certara, Sant Louis, MO, USA). This study was carried out by Swiss BioQuant AG (Reinach, Switzerland). For the toxicity study of QN23, rats were divided into four groups (n = 5 per group) and treated intravenously with vehicle (control group) or different concentrations of QN23 (2.0, 6.0, and 18 mg/kg) as a single bolus injection in a 4-day repeated dose as described above. Pathology analyses, comprising hematology, clinical biochemistry, and coagulation, were performed, and heart, kidney, liver, and spleen necropsies were collected for macroscopic analysis. This study was carried out by Vivotecnia Research S.L (Madrid, Spain).

In the case of `COc1ccc2nc(Cl)c(/C=[N+](\[O-])C(C)(C)C)cc2c1` [QN23, (Z)-N-tert-Butyl-1-(2-chloro-6-methoxyquinolin-3-yl)methanimine Oxide], the “S6-positive cells (viable neurons) in hippocampal CA1” value [1] is reported as “preserved a large number of viable neurons”, the “Solubility in ethanolic vehicle” value [2] is reported as “not soluble” and the Clast ([3]; 2.0 mg/kg single i.v. bolus) is reported as 30 ± 8 ng/mL. The “Latest time after injection with quantifiable plasma concentration” value ([3]; 6 mg/kg single i.v. bolus) was no more than 4 h, the Clast ([3]; 6.0 mg/kg single i.v. bolus) was 34 ± 5 ng/mL and the “Last concentration found as share of the initial (and maximal) detected concentration” value ([3]; 18 mg/kg single i.v. bolus) was “approximately 1%”. For the same compound, the Clast ([3]; 18 mg/kg single i.v. bolus) was 49 ± 5 ng/mL, the “AUC0–8h versus dose” value ([3]; 2.0, 6.0 and 18 mg/kg single i.v. bolus) was “increased proportional to the dose administered” and the Cmax ([3]; 2.0 mg/kg single i.v. bolus) was 161 ± 86 ng/mL. It also gave an AUC(0-t) ([3]; 2.0 mg/kg single i.v. bolus) of 160 ± 61 ng·h/mL, a C0 ([3]; 2.0 mg/kg single i.v. bolus) of 540 ± 186 ng/mL and a Cmax ([3]; 6.0 mg/kg single i.v. bolus) of 1090 ± 371 ng/mL. It also gave an AUC(0-t) ([3]; 6.0 mg/kg single i.v. bolus) of 1010 ± 355 ng·h/mL, a C0 ([3]; 6.0 mg/kg single i.v. bolus) of 2170 ± 661 ng/mL and a Cmax ([3]; 18 mg/kg single i.v. bolus) of 2570 ± 1200 ng/mL. It also gave an AUC(0-t) ([3]; 18 mg/kg single i.v. bolus) of 2960 ± 1290 ng·h/mL, a C0 ([3]; 18 mg/kg single i.v. bolus) of 4350 ± 1860 ng/mL and a clearance ([3]; 2.0 mg/kg single i.v. bolus) of 73.3 mL/min. It also gave a Vd ([3]; 2.0 mg/kg single i.v. bolus) of 1.26 ± 0.434 L, a k el ([3]; 2.0 mg/kg single i.v. bolus) of 0.00118 s⁻¹ and a half-life ([3]; 2.0 mg/kg single i.v. bolus) of 9.6 ± 0.6 min. It also gave a clearance ([3]; 6.0 mg/kg single i.v. bolus) of 56.7 mL/min, a Vd ([3]; 6.0 mg/kg single i.v. bolus) of 1.66 ± 0.584 L and a k el ([3]; 6.0 mg/kg single i.v. bolus) of 0.000931 s⁻¹. For the same compound, the half-life ([3]; 6.0 mg/kg single i.v. bolus) was 14.4 ± 1.8 min, the clearance ([3]; 18 mg/kg single i.v. bolus) was 78.1 mL/min and the Vd ([3]; 18 mg/kg single i.v. bolus) was 20.4 ± 12.3 L. The k el ([3]; 18 mg/kg single i.v. bolus) was 0.000347 s⁻¹ and the half-life ([3]; 18 mg/kg single i.v. bolus) was 67.8 ± 23.4 min.
